Laboratory results reported in patent EP1030842B1, “METALLOPROTEINASE INHIBITORS” (BRITISH BIOTECH PHARMACEUTICALS LIMITED, priority 1997, dated 1999).
Read-outs that look alike come from different tables or passages of the source.

Legend:
[1] = Propensity to induce observable signs of tendinitis in rats (observation based score); assay type: in vivo, Male Lewis rats; settings: 5µl/hr; for signs of tendinitis: observed daily for 16 days, mean scores >2 significant
Method: The compound of the invention was tested for its propensity to induce observable signs of tendinitis in rats. The tendinitic effect in rats of the compound of the invention ("Compound A") was compared with that of a close structural isomer, namely N^1-[2,2-dimethyl-1S-(pyridin-3-ylcarbamoyl)-propyl]-N^4-hydroxy-2R-isobutyl-3S-hydroxy-succinamide ("Compound B").
Male Lewis rats were used. In each study up to 30 rats were weighed and randomised on bodyweight for group allocation, n=6/group. In each study, a corresponding vehicle group was run to compare with each treatment group.
Compound A was formulated as its mesylate salt, whilst Compound B was formulated as the free base. For Compound A @ 15mg/ml the vehicle was 50% DMSO, 37% 0.1M methane sulphonic acid, 13% sterile water; and @ 30mg/ml the vehicle was 50% DMSO, 37% 0.2M methane sulphonic acid, 13% sterile water. For Compound B @ 15mg/ml the vehicle was 50% DMSO/water.
Alzet (trade mark) osmotic minipumps (2ML2, 14 day, 5µl/hr from Alza Corp., Palo Alto CA 94303), were weighed empty and full to be sure of correct fill volume. Prior to implantation, filled pumps were placed in an incubator at 37°C. All rats were anaesthetized with halothane. Once anaesthetised, the scruff was shaved and disinfected. A longitudinal skin incision, approx 2 cm long, was made on the prepared site and a subcutaneous pocket was made under the skin using a pair of haemostatic forceps. Minipumps were inserted with the exit of the pump facing away from the wound. The incision wound was closed with sutures, and the area around the wound was re-disinfected. Immediately post-operatively, all the rats received analgesic, (Temgesic -trade mark - Reckitt and Colman) 0.1mg/kg s.c. in the flank. On recovery from anaesthesia, the animals were returned to cages containing dry bedding to ensure the wound remained dust free prior to healing. On the day followng surgery, all rats were placed back on standard bedding and housed in groups of 3 to enable more accurate observation of signs of tendinitis.
Following the implantation of mini-pumps, rats were weighed and monitored for the possible onset of tendinitis. Onset and severity of tendinitis was measured by an observation based scoring system (see below). The rats were observed daily for 16 days. Mean scores >2 were considered significant.

[2] = Blood concentration in minipump-dosed rats of the tendinitis study (fluorometric assay); assay type: in vivo; settings: rats of the tendinitis tests; blood samples days 3, 10 and 16 or 17 post implantation
Method: Blood samples were obtained on days 3 and 10 post minipump implantation from rats lightly anaesthetised with halothane via the tail vein. Blood samples (0.5ml) were placed into tubes containing 3.0ml methanol to extract free and bound compound. Blood concentration of Compound A or Compound B was determined by a fluorometric assay using the coumarin peptide substrate Mca-Pro-Leu-Gly-Leu-Dpa-Ala-Arg-NH2 (Mca = (7-methoxycoumarin-4-yl)acetyl, Dpa = N-3-(2,4-dinitrophenyl)-L-2,3-diaminopropyl) (see Knight et. al., FEBS Lett. 1992, 296, 263-266). On either day 16 or 17 post implantation, studies were ended, rats were terminally anaesthetised with halothane and blood samples (0.5ml) were taken by cardiac puncture and the blood concentration of Compound A or Compound B determined.

72 kDa gelatinase = biological target: T1, 72 kDa gelatinase (Homo sapiens, UniProt P08253); test: 72 kDa gelatinase inhibition (14C gelatin, based on Sellers et al); assay type: biochemical; settings: 16 hours at 37°C
T1 construct: endogenous in cells; host or cells: RPMI-7951 cells
T1 sequence (P08253 110-660): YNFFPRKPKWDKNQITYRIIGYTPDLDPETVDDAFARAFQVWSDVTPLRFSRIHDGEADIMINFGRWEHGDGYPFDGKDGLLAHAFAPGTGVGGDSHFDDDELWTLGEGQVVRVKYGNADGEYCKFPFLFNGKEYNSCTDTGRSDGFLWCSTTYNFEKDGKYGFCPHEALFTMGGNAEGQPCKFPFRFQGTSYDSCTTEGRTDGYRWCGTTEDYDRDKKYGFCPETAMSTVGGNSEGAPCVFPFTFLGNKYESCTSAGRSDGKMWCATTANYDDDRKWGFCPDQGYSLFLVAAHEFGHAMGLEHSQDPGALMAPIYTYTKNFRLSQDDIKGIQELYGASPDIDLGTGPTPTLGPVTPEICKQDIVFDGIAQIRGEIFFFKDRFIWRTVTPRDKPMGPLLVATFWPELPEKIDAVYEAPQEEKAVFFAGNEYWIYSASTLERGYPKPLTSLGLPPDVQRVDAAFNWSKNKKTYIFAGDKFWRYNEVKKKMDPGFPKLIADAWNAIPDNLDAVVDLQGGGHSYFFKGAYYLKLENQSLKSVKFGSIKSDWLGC
Method: 72 kDa gelatinase, derived from RPMI-7951 cells was purified by gelatin-agarose chromatography. The enzyme was activated by incubation with aminophenyl mercuric acetate and approximately 0.05 units was incubated with 50µg [^14C]-radiolabelled gelatin in an appropriate buffer for 16 hours at 37'C. At the end of the incubation 50µg bovine serum albumin, together with trichloroacetic acid (final concentration 16%) were added to stop the reaction and to precipitate any undegraded substrate. The reaction tubes were placed on ice for 15 minutes before centrifugation at 10,000g for 15 minutes to sediment the precipitated substrate. A 200µl aliquot of the reaction supernatant was removed and the radioactivity determined by liquid scintillation counting. The effect of the inhibitors was determined by reference to a dose response curve. The IC50 (the concentration of inhibitor required to cause a 50% decrease in enzyme activity) was obtained by fitting a curve to the data and computing the concentration of inhibitor required to achieve 50% inhibition of the enzyme. For each IC50 determination, the effect on gelatinase activity of at least 8 concentrations of the inhibitor were examined. The inhibitors were dissolved and diluted in DMSO.

[3] = Blood concentration over time after gavage, by collagenase inhibitory activity of blood extracts; assay type: in vivo; settings: male rats
Method: The concentration over time of compound of the invention in the blood of laboratory animals following administration of the test compounds was measured. The compound was administered by gavage to 6 male rats (300g) per treatment group. Blood samples were removed by tail venepuncture at 0.5, 1.0, 2.0, 6.0 and 24 hours post administration. 0.4 ml of blood was placed into 4.5ml tubes containing 0.1ml acid citrate dextrose (ACD) as anti-coagulant. For extraction, 3ml methanol was added and the precipitated blood pelletted by centrifugation (30 min at 3000 rpm). A 2ml aliquot of supernatant was removed and concentrated by lyophilisation. The extract was redissolved in 200µl DMSO and a 10µl aliquot assayed for collagenase inhibitory activity. The inhibitory activity in the extracts was determined using the collagenase assay described in Biological Example A above, and the concentration of inhibitor (that is drug plus any active metabolites) obtained by comparison with standard curves. Results are expressed as peak concentration in ng/ml, as area under the curve (AUC) in ng/ml x hours, over 0.5-24 hours, and as AUC in number of IC50's x hours.

[4] = Inhibitory activity in blood after oral administration to marmosets; assay type: in vivo
[5] = Inhibitory activity in blood after oral administration to healthy human volunteers; assay type: in vivo
B16 mouse melanoma cells = test: B16 mouse melanoma model; assay type: in vivo, C57/BL6J mice
From the text: In this model C57/BL6J mice are inoculated subcutaneously with 10^5 B16 mouse melanoma cells. The tumours are allowed to grow over 18 days and the tumour weight calculated by calliper measurements and the following formula: weight (mg)- length (mm) x width (mm) ö 4. A group of mice (n=19) received the compound, administered via a mini-osmotic pump implanted subcutaneously on the opposite flank to the B16 tumour. The pump was implanted the day before tumour inoculation and the compound was delivered at a dose of 360 µg/day. A control group (n=17) received the appropriate volume of vehicle from identical implanted pumps.

MDA-435 cells = settings: study ended day 32
Method: In this model, animals were inoculated with MDA-435 cells (10^6 cells/mouse), the tumours allowed to grow for four days and then the animals were randomised by tumour weight into three treatment groups (n=15 per group). Mini-pumps were surgically implanted on day 5 containing either vehicle or test compound at 15 mg/ml or 60 mg/ml (delivering 180 or 720 µg/mouse/day respectively). The pumps were replaced on day 19 and the study ended on day 32.

[6] = Rat experimental autoimmune neuritis (EAN) model of GBS; assay type: in vivo
Method: The effect of the compound of the invention was tested in an animal model of GBS Experimental autoimmune neuritis (EAN) is a T cell mediated, autoimmune disorder of the peripheral nervous system. […] EAN can be induced when animals are injected with myelin from peripheral nerves, or with protein components of the myelin such as Protein 0, in adjuvant. EAN lesions occur in the spinal roots and peripheral nerves and are characterised by perivascular mononuclear cell infiltration, demyelination of axons and nerve conduction deficit.
The compound of the invention was tested in a rat EAN model where disease symptoms were induced by injection of peripheral nerve myelin in adjuvant. […]

[7] = Delayed type hypersensitivity (DTH) model of MS; assay type: in vivo, Male Lewis rats; settings: 30mg/kg orally twice daily, mean ± standard error of the mean
interstitial collagenase = interstitial collagenase (Homo sapiens, UniProt P03956); test: biochemical
Method: The potency of the compound of the invention as inhibitors of interstitial collagenase was determined by the procedure of Cawston and Barrett, (Anal. Biochem., 99, 340-345, 1979), whereby a 1mM solution of the compound being tested, or a dilution thereof, was incubated at 37° for 16 hours with collagen and collagenase (buffered with 25mM Hepes, pH 7.5 containing 5mM CaCl2, 0.05% Brij 35 and 0.02% NaN3). The collagen was acetylated ^14C collagen prepared by the method of Cawston and Murphy, (Methods in Enzymology, 80, 711, 1981), hereby incorporated by reference. The samples were centrifuged to sediment undigested collagen, and an aliquot of the radioactive supernatant removed for assay on a scintillation counter as a measure of hydrolysis.

stromelysin-1 = stromelysin-1 (Homo sapiens, UniProt P08254); test: biochemical
Method: The potency of the compound of the invention as inhibitors of stromelysin-1 was determined by the procedure of Cawston et al, (Biochem. J., 195, 159-165, 1981), whereby a 1mM solution of the compound being tested, or a dilution thereof, was incubated at 37° for 16 hours with stromelysin and ^14C acetylate casein (buffered with 25mM Hepes, pH 7.5 containing 5mM CaCl2, 0.05% Brij 35 and 0.02% NaN3). The casein was acetylated ^14C casein prepared by the method of Cawston et al (ibid).

[8] = 15mg/ml in osmotic minipump, Compound A as mesylate salt, Compound B as free base

Chain of interstitial collagenase (P03956 100-469, species assumed): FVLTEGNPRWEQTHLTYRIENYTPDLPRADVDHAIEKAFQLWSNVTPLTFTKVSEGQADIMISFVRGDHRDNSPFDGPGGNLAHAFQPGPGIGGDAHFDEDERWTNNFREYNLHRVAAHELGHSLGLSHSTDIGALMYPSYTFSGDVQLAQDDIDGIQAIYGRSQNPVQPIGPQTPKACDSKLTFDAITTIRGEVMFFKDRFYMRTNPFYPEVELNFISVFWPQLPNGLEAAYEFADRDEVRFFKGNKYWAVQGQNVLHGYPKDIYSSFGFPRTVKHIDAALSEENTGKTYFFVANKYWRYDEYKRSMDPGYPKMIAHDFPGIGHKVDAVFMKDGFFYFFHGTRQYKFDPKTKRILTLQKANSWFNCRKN
Chain of stromelysin-1 (P08254 100-477, species assumed): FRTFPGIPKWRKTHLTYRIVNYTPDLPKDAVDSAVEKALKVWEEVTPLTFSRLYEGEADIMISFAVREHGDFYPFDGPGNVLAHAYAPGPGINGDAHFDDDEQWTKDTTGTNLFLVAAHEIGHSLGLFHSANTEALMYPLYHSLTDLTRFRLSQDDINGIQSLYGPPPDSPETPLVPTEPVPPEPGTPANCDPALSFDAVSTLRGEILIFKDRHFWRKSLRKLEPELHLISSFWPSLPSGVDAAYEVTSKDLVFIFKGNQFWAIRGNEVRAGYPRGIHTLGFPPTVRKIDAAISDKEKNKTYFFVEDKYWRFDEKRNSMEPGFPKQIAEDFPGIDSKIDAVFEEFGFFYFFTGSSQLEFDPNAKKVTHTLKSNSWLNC

In the case of `CC(C)C[C@@H](C(=O)N[C@H](C(=O)Nc1cccnc1)C(C)(C)C)[C@H](O)C(=O)NO` [Compound B, N^1-[2,2-dimethyl-1S-(pyridin-3-ylcarbamoyl)-propyl]-N^4-hydroxy-2R-isobutyl-3S-hydroxy-succinamide], the signs of tendinitis [1, 8] is reported as “significant signs from day 8 onwards”, the “mean scores (tendinitis)” value ([1]; day 8, 15mg/ml in osmotic minipump) is reported as > 2 and the “mean scores (tendinitis)” value ([1]; days 15 and 16, 15mg/ml in osmotic minipump) is reported as “about 6”. The “plasma exposure from the minipumps” value [2] was “receiving plasma exposure”.
In the case of `CO[C@H](C(=O)NO)[C@@H](CC(C)C)C(=O)N[C@H](C(=O)Nc1ccccn1)C(C)(C)C` [compound of the invention, N^1-[2,2-Dimethyl-1S-(pyridin-2-ylcarbamoyl)-propyl]-N^4-hydroxy-2R-isobutyl-3S-methoxy-succinamide], the IC50 (72 kDa gelatinase) is reported as 70 nM, the “AUC (0.5 - 24h)” value ([3]; AUC in number of IC50's x hours) is reported as 674 n IC50's x h and the “AUC (0.5 - 24h)” value ([3]; drug plus any active metabolites in blood) is reported as 2966 ng/ml x h. For the same compound, the “inhibitory activity in the blood” value [4] was “significant levels of inhibitory activity have been detected”, the “inhibitory activity in the blood” value [5] was “significant levels of inhibitory activity have been detected” and the “weight of the compound-treated tumours” value (B16 mouse melanoma cells; day 18, 360 µg/day via subcutaneous mini-osmotic pump, control 1145 ± 97 mg) was 774 ± 50 mg. The “reduction of tumour weight” value (B16 mouse melanoma cells; day 18, 360 µg/day, versus vehicle control, p<0.005) was 32%, the plasma level (B16 mouse melanoma cells; end of the study, 360 µg/day via mini-osmotic pump) was 26.8 ± 3.2 ng/mL and the “inhibition of tumour growth” value (MDA-435 cells; 180 µg/mouse/day (15 mg/ml mini-pump)) was 19%. The “inhibition of tumour growth” value (MDA-435 cells; 720 µg/mouse per day (60 mg/ml mini-pump), p<0.005) was 33%, the signs of tendinitis [1, 8] was “no significant signs of tendinitis” and the signs of tendinitis ([1]; 30mg/ml in osmotic minipump, mesylate salt) was “no significant signs of tendinitis”. The clinical symptoms ([6]; given therapeutically day 8-15, 15 or 30 mg/ml at 10 µl/hour, 14 and 28 mg/kg/day) was “reduces clinical symptoms in a dose dependent manner”, the “development of clinical symptoms” value ([6]; treatment day 1-15, minipumps 15 or 30 mg/ml at 5 µl/hour, 7 and 14 mg/kg/day) was “significantly reduces the development of clinical symptoms in a dose-dependent manner” and the “Blood brain barrier leakage” value ([7]; day 5 to day 15 after second BCG injection, p<0.05 vs vehicle) was 2.042±0.487 mm^2. The T cell infiltration ([7]; OX-22 positive cells, p<0.0001 vs vehicle) was 341.2±21.9 cells/mm^2, the Demyelination ([7]; not statistically significant) was 0.758±0.227 mm^2 and the “MHC class II expression” value ([7]; not statistically significant) was 1.318±0.300 mm^2. For the same compound, the “plasma exposure from the minipumps” value [2] was “receiving plasma exposure”, the IC50 (interstitial collagenase) was 10 nM and the IC50 (stromelysin-1) was 30 nM.
